# According to US20240083888A1, “SMALL MOLECULE INHIBITOR FOR CATHEPSIN C AND MEDICINAL USE THEREOF” (REISTONE BIOPHARMA COMPANY LIMITED, priority 2020, published 2024):
# Structures can show the parent of a compound that is named as a salt.
# Molecular target: rhCatC (Homo sapiens (Human), UniProt P53634)
# Test: In vitro enzyme activity experiment of rhCatC (AMC fluorescence assay)
# Type: biochemical
# Conditions: not given
# Experimental: The in vitro inhibitory effect of compounds and positive control on rhCatC enzyme activity was evaluated by AMC fluorescence assay. rhCatC can catalyze the reaction of substrate peptide H-Gly-Arg-AMC, and release AMC to generate fluorescence. […] The compound was diluted with DMSO to a 384-well echo plate at a concentration of 100× of the highest concentration at the beginning of the experiment. 0.2 μL of the diluted compound was pipetted to a black-bottomed 384-well reaction plate for later use. The negative control well was DMSO. • 2) Activation of rhCatC: RhCatC and rhCatL were added to the activation buffer to obtain a final concentration of rhCatC of 100 μg/mL and a final concentration of rhCatL of 20 μg/mL, and incubated at room temperature for 1 hour. • 3) Enzyme activity reaction: Activated rhCatC was diluted to 0.4 μg/mL with the reaction buffer. The solution was added to the black-bottom 384-well reaction plate ([…]). 10 μL of the buffer was added for the vehicle control group. The plate containing compounds in its wells was incubated at room temperature for 30 minutes.
# The RLU data was read, the inhibition rate was calculated, and the IC50 value was calculated according to the fitting curve of concentration and inhibition rate.
# Chain of rhCatC (P53634 25-134): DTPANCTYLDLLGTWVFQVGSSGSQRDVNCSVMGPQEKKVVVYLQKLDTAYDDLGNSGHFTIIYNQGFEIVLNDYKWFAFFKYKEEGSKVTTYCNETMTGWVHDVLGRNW
# Chain of rhCatC (P53634 231-394): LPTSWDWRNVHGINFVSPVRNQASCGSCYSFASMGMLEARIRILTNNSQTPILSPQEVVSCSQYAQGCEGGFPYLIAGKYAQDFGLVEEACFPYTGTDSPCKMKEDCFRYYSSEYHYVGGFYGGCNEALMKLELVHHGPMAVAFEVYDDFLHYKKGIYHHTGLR
# Chain of rhCatC (P53634 395-463): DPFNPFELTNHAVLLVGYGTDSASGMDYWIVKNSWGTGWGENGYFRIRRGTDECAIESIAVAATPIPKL
row,SMILES,IC50
1,"N#Cc1cc2c(cn1)-c1cc(F)c(C[C@@H](C#N)NC(=O)[C@@H]3CNCCCO3)cc1OC2 [Compound 19, (S)—N—((S)-1-Cyano-2-(3-cyano-9-fluoro-5H-chromeno[4,3-c]pyridin-8-yl)ethyl)-1,4-oxazepane-2-carboxamide]",32 nM
2,"CS(=O)(=O)c1ccc2c(c1)-c1cc(F)c(CC(C#N)NC(=O)[C@@H]3CNCCCO3)cc1OC2 (stereo partly drawn) [Compound 43, (2S)—N-(1-Cyano-2-(2-fluoro-9-(methylsulfonyl)-6H-benzo[c]chromen-3-yl)ethyl)-1,4-oxazepane-2-carboxamide]",26 nM

# Same assay, conditions: rhCatC enzyme, substrate H-Gly-Arg-AMC; read-out: Biological activity IC50
row,SMILES,IC50
1,"N#C[C@H](Cc1ccc2c(c1)CN(c1ccccc1)C2=O)NC(=O)C1(N)CCOCC1 [Compound 1, (S)-4-Amino-N-(1-cyano-2-(1-oxo-2-phenylisoindolin-5-yl)ethyl)tetrahydro-2H-pyran-4-carboxamide]",42 nM
2,"N#C[C@H](Cc1ccc2c(c1)CN(c1ccccc1)C2=O)NC(=O)[C@@H]1CNCCCO1 [Compound 2, (S)—N—((S)-1-Cyano-2-(1-oxo-2-phenylisoindolin-5-yl)ethyl)-1,4-oxazepane-2-carboxamide]",710 nM
3,"N#CC(Cc1ccc2c(c1)CCCC2)NC(=O)[C@@H]1CNCCCO1 (stereo partly drawn) [Compound 3, (2S)—N-(1-Cyano-2-(5,6,7,8-tetrahydronaphthalen-2-yl)ethyl)-1,4-oxazepane-2-carboxamide trifluoroacetate]",4250 nM
4,"N#CC(Cc1ccc2c(c1)CCCC2)NC(=O)C1(N)CCOCC1 (centres unmarked) [Compound 4, 4-Amino-N-(1-cyano-2-(5,6,7,8-tetrahydronaphthalen-2-yl)ethyl)tetrahydro-2H-pyran-4-carboxamide]",54 nM
5,"N#CC(Cc1ccc2c(c1)CCC2)NC(=O)[C@@H]1CNCCCO1 (stereo partly drawn) [Compound 5, (2S)—N-(1-Cyano-2-(2,3-dihydro-1H-inden-5-yl)ethyl)-1,4-oxazepane-2-carboxamide trifluoroacetate]",3590 nM
6,"N#CC(Cc1ccc2c(c1)CCC2)NC(=O)C1(N)CCOCC1 (centres unmarked) [Compound 6, 4-Amino-N-(1-cyano-2-(2,3-dihydro-1H-inden-5-yl)ethyl)tetrahydro-2H-pyran-4-carboxamide]",56 nM
7,"CN1CCc2cc(C[C@@H](C#N)NC(=O)[C@@H]3CNCCCO3)ccc2C1 [Compound 9, (S)—N—((S)-1-Cyano-2-(2-methyl-1,2,3,4-tetrahydroisoquinolin-6-yl)ethyl)-1,4-oxazepane-2-carboxamide]",1740 nM
8,"N#C[C@H](Cc1ccc2c(c1)OCCC2)NC(=O)C1(N)CCOCC1 [Compound 10, (S)-4-Amino-N-(2-(chroman-7-yl)-1-cyanoethyl)tetrahydro-2H-pyran-4-carboxamide]",74 nM
9,"N#CC(Cc1ccc2c(c1)OCc1cc(F)ccc1-2)NC(=O)[C@@H]1CNCCCO1 (stereo partly drawn) [Compound 11, (2S)—N-(1-Cyano-2-(8-fluoro-6H-benzo[c]chromen-3-yl)ethyl)-1,4-oxazepane-2-carboxamide formate]",74 nM
10,"N#CC(Cc1ccc2c(c1)COc1cc(F)ccc1-2)NC(=O)[C@@H]1CNCCCO1 (stereo partly drawn) [Compound 15, (2S)—N-(1-Cyano-2-(3-fluoro-6H-benzo[c]chromen-8-yl)ethyl)-1,4-oxazepane-2-carboxamide]",304 nM
11,"CC1(C)Oc2cc(C[C@@H](C#N)NC(=O)[C@@H]3CNCCCO3)c(F)cc2-c2ccc(C#N)cc21 [Compound 27, (S)—N—((S)-1-Cyano-2-(8-cyano-2-fluoro-6,6-dimethyl-6H-benzo[c]chromen-3-yl)ethyl)-1,4-oxazepane-2-carboxamide]",23 nM
12,"N#Cc1cnc2c(c1)COc1cc(CC(C#N)NC(=O)[C@@H]3CNCCCO3)c(F)cc1-2 (stereo partly drawn) [Compound 33, (2S)—N-(1-Cyano-2-(3-cyano-9-fluoro-5H-chromeno[4,3-b]pyridin-8-yl)ethyl)-1,4-oxazepane-2-carboxamide]",85 nM
13,"N#CC(Cc1ccc2c(c1)OCc1ccc(C3CCNC3)cc1-2)NC(=O)C1(N)CCOCC1 (centres unmarked) [Compound 34, 4-Amino-N-(1-cyano-2-(9-(pyrrolidin-3-yl)-6H-benzo[c]chromen-3-yl)ethyl)tetrahydro-2H-pyran-4-carboxamide]",6.2 nM
14,"N#C[C@H](Cc1cc2c(cc1F)-c1cc(C3COC3)c(F)cc1CO2)NC(=O)[C@@H]1CNCCCO1 [Compound 38A, (S)—N—((S)-1-Cyano-2-(2,8-difluoro-9-(oxetan-3-yl)-6H-benzo[c]chromen-3-yl)ethyl)-1,4-oxazepane-2-carboxamide]",1.3 nM
15,"N#C[C@@H](Cc1cc2c(cc1F)-c1cc(C3COC3)c(F)cc1CO2)NC(=O)[C@@H]1CNCCCO1 [Compound 38B, (S)—N—((R)-1-Cyano-2-(2,8-difluoro-9-(oxetan-3-yl)-6H-benzo[c]chromen-3-yl)ethyl)-1,4-oxazepane-2-carboxamide]",76 nM
16,"N#CC(Cc1ccc2c(c1)CCOc1cc(F)ccc1-2)NC(=O)C1(N)CCOCC1 (centres unmarked) [Compound 39, 4-Amino-N-(1-cyano-2-(3-fluoro-6,7-dihydrodibenzo[b,d]oxepin-9-yl)ethyl)tetrahydro-2H-pyran-4-carboxamide]",46 nM
17,"N#C[C@H](Cc1ccc2c(c1)oc1cc(F)ccc12)NC(=O)C1(N)CCOCC1 [Compound 42, (S)-4-Amino-N-(1-cyano-2-(7-fluorodibenzo[b,d]furan-3-yl)ethyl)tetrahydro-2H-pyran-4-carboxamide]",5.7 nM
18,"N#C[C@H](Cc1ccc2c(c1)OCCN(c1ccc(F)cc1)C2=O)NC(=O)C1(N)CCOCC1 [Compound 44, (S)-4-Amino-N-(1-cyano-2-(4-(4-fluorophenyl)-5-oxo-2,3,4,5-tetrahydrobenzo[f][1,4]oxazepin-8-yl)ethyl)tetrahydro-2H-pyran-4-carboxamide]",39 nM
19,"N#Cc1ccc(N2Cc3cc(C[C@@H](C#N)NC(=O)C4(N)CCOCC4)ccc3C2=O)cc1 [Compound 45, (S)-4-Amino-N-(1-cyano-2-(2-(4-cyanophenyl)-1-oxoisoindolin-5-yl)ethyl)tetrahydro-2H-pyran-4-carboxamide]",72 nM
20,"N#Cc1ccc(C(=O)N2Cc3ccc(C[C@@H](C#N)NC(=O)C4(N)CCOCC4)cc3C2)cc1 [Compound 46, (S)-4-Amino-N-(1-cyano-2-(2-(4-cyanobenzoyl)isoindolin-5-yl)ethyl)tetrahydro-2H-pyran-4-carboxamide]",54 nM
21,"N#Cc1cccc(N2Cc3cc(C[C@@H](C#N)NC(=O)C4(N)CCOCC4)ccc3C2=O)c1 [Compound 47, (S)-4-Amino-N-(1-cyano-2-(2-(3-cyanophenyl)-1-oxoisoindolin-5-yl)ethyl)tetrahydro-2H-pyran-4-carboxamide formate]",29 nM
22,"Cn1c(=O)oc2ccc(N3Cc4cc(C[C@@H](C#N)NC(=O)C5(N)CCOCC5)ccc4C3=O)cc21 [Compound 48, (S)-4-Amino-N-(1-cyano-2-(2-(3-methyl-2-oxo-2,3-dihydrobenzo[d]oxazol-5-yl)-1-oxoisoindolin-5-yl)ethyl)tetrahydro-2H-pyran-4-carboxamide]",29 nM
23,"N#C[C@H](Cc1ccc2c(c1)CCN(c1ccccc1)C2=O)NC(=O)C1(N)CCOCC1 [Compound 49, (S)-4-Amino-N-(1-cyano-2-(1-oxo-2-phenyl-1,2,3,4-tetrahydroisoquinolin-6-yl)ethyl)tetrahydro-2H-pyran-4-carboxamide]",57 nM
24,"N#C[C@H](Cc1ccc2c(c1)C(=O)N(c1ccccc1)C2)NC(=O)C1(N)CCOCC1 [Compound 50, (S)-4-Amino-N-(1-cyano-2-(3-oxo-2-phenylisoindolin-5-yl)ethyl)tetrahydro-2H-pyran-4-carboxamide]",19 nM
25,"CN1CCc2cc(C[C@@H](C#N)NC(=O)C3(N)CCOCC3)ccc2C1 [Compound 51, (S)-4-Amino-N-(1-cyano-2-(2-methyl-1,2,3,4-tetrahydroisoquinolin-6-yl)ethyl)tetrahydro-2H-pyran-4-carboxamide]",39 nM
26,"N#C[C@H](Cc1ccc2c(c1)COCC2)NC(=O)C1(N)CCOCC1 [Compound 52, (S)-4-Amino-N-(1-cyano-2-(isochroman-7-yl)ethyl)tetrahydro-2H-pyran-4-carboxamide trifluoroacetate]",138 nM
27,"N#C[C@H](Cc1ccc2c(c1)OCCN(c1ccc(F)cc1)C2)NC(=O)C1(N)CCOCC1 [Compound 53, (S)-4-Amino-N-(1-cyano-2-(4-(4-fluorophenyl)-2,3,4,5-tetrahydrobenzo[f][1,4]oxazepin-8-yl)ethyl)tetrahydro-2H-pyran-4-carboxamide]",196 nM
28,"N#C[C@H](Cc1ccc2c(c1)CN(c1ccc(F)cc1)C2)NC(=O)C1(N)CCOCC1 [Compound 54, (S)-4-Amino-N-(1-cyano-2-(2-(4-fluorophenyl)isoindolin-5-yl)ethyl)tetrahydro-2H-pyran-4-carboxamide]",28 nM
29,"N#C[C@H](Cc1ccc2c(c1)CN(C(=O)c1ccc(F)cc1)C2)NC(=O)C1(N)CCOCC1 [Compound 55, (S)-4-Amino-N-(1-cyano-2-(2-(4-fluorobenzoyl)isoindolin-5-yl)ethyl)tetrahydro-2H-pyran-4-carboxamide]",174 nM
30,"N#C[C@H](Cc1ccc2c(c1)CCN(C(=O)c1ccc(F)cc1)C2)NC(=O)C1(N)CCOCC1 [Compound 56, (S)-4-Amino-N-(1-cyano-2-(2-(4-fluorobenzoyl)-1,2,3,4-tetrahydroisoquinolin-6-yl)ethyl)tetrahydro-2H-pyran-4-carboxamide]",37 nM
